Test results as given in patent US20230000773A1, “NOVEL HEADGROUP LIPID COMPOUNDS AND COMPOSITIONS FOR INTRACELLULAR DELIVERY OF THERAPEUTIC AGENTS” (ModernaTX, Inc., priority 2019, published 2023).

Experiments:
[1] = Size and polydispersity index of nanoparticles comprising compounds of the disclosure; assay type: physicochemical; settings: compound:DSPC:cholesterol:PEG 2 50:10:38:2 mol %
Description: Lipid nanoparticles (e.g., empty LNPs or loaded LNPs) may be characterized by a variety of methods. For example, microscopy (e.g., transmission electron microscopy or scanning electron microscopy) may be used to examine the morphology and size distribution of a nanoparticle composition. Dynamic light scattering or potentiometry (e.g., potentiometric titrations) may be used to measure zeta potentials. Dynamic light scattering may also be utilized to determine particle sizes. Instruments such as the Zetasizer Nano ZS (Malvern Instruments Ltd, Malvern, Worcestershire, UK) may also be used to measure multiple characteristics of a nanoparticle composition, such as particle size, polydispersity index, and zeta potential.
(§1) Nanoparticle compositions including a therapeutic and/or prophylactic can be optimized according to the selection of a compound according to Formula (I), (I-1), (A), (A-1), (A-1a), or (A-1b), the selection of additional lipids, the amount of each lipid in the lipid component, and the wt:wt ratio of the lipid component to the therapeutic and/or prophylactic. Nanoparticle compositions including DSPC as a phospholipid, cholesterol as a structural lipid, PEG 2 as a PEG lipid, and a compound according to Formula (I), (I-1), (A), (A-1), (A-1a), or (A-1b) were prepared. The ratios of the lipids were 50:10:38:2 mol % for the lipid according to Formula (I), (I-1), (A), (A-1), (A-1a), or (A-1b):DSPC:cholesterol:PEG 2. […]

[2] = Encapsulation efficiency (% EE), ribogreen; assay type: physicochemical; settings: nanoparticles, compound:DSPC:cholesterol:PEG 2 50:10:38:2 mol %
Description: (§2) The efficiency of encapsulation of a therapeutic and/or prophylactic describes the amount of therapeutic and/or prophylactic that is encapsulated or otherwise associated with a lipid nanoparticle (e.g., an empty LNP or a loaded LNP) after preparation, relative to the initial amount provided. The encapsulation efficiency is desirably high (e.g., close to 100%). The encapsulation efficiency may be measured, for example, by comparing the amount of therapeutic and/or prophylactic in a solution containing the lipid nanoparticle (e.g., an empty LNP or a loaded LNP) before and after breaking up the lipid nanoparticle (e.g., an empty LNP or a loaded LNP) with one or more organic solvents or detergents. Fluorescence may be used to measure the amount of free therapeutic and/or prophylactic (e.g., RNA) in a solution.
as §1

[3] = Encapsulation efficiency (% EE), ribostar; assay type: physicochemical; settings: nanoparticles, compound:DSPC:cholesterol:PEG 2 50:10:38:2 mol %
Description: as §2, with “solution. For the lipid nanoparticles (e.g., empty LNPs or loaded LNPs) described herein, the encapsulation efficiency of a therapeutic and/or prophylactic may be at least 50%, for example 50%, 55%, 60%, 65%, 70%, 75%, 80%, 85%, 90%, 91%, 92%, 93%, 94%, 95%, 96%, 97%, 98%, 99%, or 100%. In some embodiments, the encapsulation efficiency may be at least 80%. In certain embodiments, the encapsulation efficiency may be at least 90%. In some embodiments, the encapsulation efficiency of the therapeutic and/or prophylactic agent is between 80% and 100%.” for “solution.”
Nanoparticle compositions including a therapeutic and/or prophylactic can be optimized according to the selection of a compound according to Formula (I), (I-1), (A), (A-1), (A-1a), or (A-1b), the selection of additional lipids, the amount of each lipid in the lipid component, and the wt:wt ratio of the lipid component to the therapeutic and/or prophylactic. Nanoparticle compositions including DSPC as a phospholipid, cholesterol as a structural lipid, PEG 2 as a PEG lipid, and a compound according to Formula (I), (I-1), (A), (A-1), (A-1a), or (A-1b) were prepared. The ratios of the lipids were 50:10:38:2 mol % for the lipid according to Formula (I), (I-1), (A), (A-1), (A-1a), or (A-1b):DSPC:cholesterol:PEG 2. Tables 2a, 2b, and 3-5 summarize the characteristics of the formulations.
Table 4 summarizes the surface hydrophobicity of nanoparticles comprising compounds of the disclosure as determined by Generalized Polarization by Laurdan (GPL). Laurdan, a fluorescent aminonaphthalene ketone lipid, was post-inserted into the nanoparticle surface and the fluorescence spectrum of Laurdan was collected to determine the normalized Generalized Polarization (N-GP). Higher N-GP indicates a less polar surface.

[4] = Apparent LNP pKa by 2-(p-toluidino)-6-napthalene sulfonic acid (TNS) assay; assay type: physicochemical; settings: pH at half of maximum fluorescence
[5] = Heparin-sepharose binding of nanoparticles
[6] = tested on: hEPO mRNA; assay: hEPO expression in CD1-mice after intravenous administration of nanoparticles; assay type: in vivo; settings: 6 h after intravenous administration, mRNA dose 0.5 mg/kg, N:P 3.4, compound:DSPC:cholesterol:PEG 2 50:10:38:2
Description: The expression of hEPO mRNA in CD1-mice was measured 6 h after intravenous administration of nanoparticles comprising a compound of the disclosure, DSPC, cholesterol, and PEG 2 in a ratio of 50:10:38:2. […] Each composition was dosed to 8 animals at an mRNA dose of 0.5 mg/kg.

[7] = tested on: serum protein ApoE; assay: ApoE binding affinity of nanoparticles (bead binding, flow cytometry)
Description: The ApoE binding affinity, i.e., the affinity of binding between nanoparticles comprising compounds of the disclosure and the serum protein ApoE, was determined by binding the nanoparticles to beads, then incubating them with known quantities of […]. The quantity of protein bound to the nanoparticle was then determined by flow cytometry.

[8] = Surface hydrophobicity by Generalized Polarization by Laurdan (GPL); assay type: physicochemical; settings: normalized Generalized Polarization by Laurdan; higher N-GP = less polar surface
Summary of the method: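 LNPs contained ionizable lipid:DSPC:cholesterol:PEG lipid at 50:10:38:2 mol %. Laurdan was post-inserted into the particle surface, and its fluorescence spectrum gave normalized generalized polarization (N-GP); higher N-GP means a less polar surface.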

[9] = tested on: mRNA; assay: mRNA integrity in nanoparticles by RP-IP HPLC (UV 260 nm); assay type: physicochemical
Description: Integrity of mRNA comprised in nanoparticles of the disclosure, i.e., the percentages of intact mRNA, mRNA adducts, and mRNA hydrolysis products, […] (Reverse-Phase Ion-Pairing HPLC) using UV detection at 260 nm. Total purity and impurities are calculated as percent peak area.

[10] = mRNA integrity after 2 weeks at 25° C., percent peak area
[11] = mRNA integrity at t = 0, percent peak area

Structure (SMILES) | PDI [1] | Size (nm) [1] | % EE (ribogreen) [2] | % EE (ribostar) [3] | LogIC50 (pKa) [4] | Relative % Area Bound by LNP [5] | Avg. [hEPO] mIU/mL [6] | Median Fluorescence Intensity, PE [7] | Average N-GP [8] | Adduct [9, 10] | Hydrolysis Product [9, 10] | Intact [9, 10] | Adduct [9, 11] | Hydrolysis Product [9, 11] | Intact [9, 11]
CCCCCCCCC(CC)OC(=O)CCCCCCCN(CCCCCCCC(=O)OC(CCCCCCCC)CCCCCCCC)CCCNc1n[s+]([O-])nc1NC (centres unmarked) [Compound 1, Heptadecan-9-yl 8-((3-((4-(methylamino)-1-oxido-1,2,5-thiadiazol-3-yl)amino)propyl)(8-oxo-8-(undecan-3-yloxy)octyl)amino)octanoate] | 0.131 | 67.6 nm | 97.5% | 61.4% | 6.94 | 0% | 6.38E+05 mIU/mL | 182846 |  |  |  |  |  |  | 
CCCCCCCCC(CC)OC(=O)CCCCCCCN(CCCCCCCC(=O)OC(CCCCCCCC)CCCCCCCC)CCCNc1ncccc1NC (centres unmarked) [Compound 34, Heptadecan-9-yl 8-((3-((3-(methylamino)pyridin-2-yl)amino)propyl)(8-oxo-8-(undecan-3-yloxy)octyl)amino)octanoate] | 0.211 | 108.2 nm | 75.4% | 41.6% | 6.87 | 2.90% | 8.06E+05 mIU/mL | 3133 | 1.001 | 7.9% | 51.4% | 40.8% | 3.8% | 36.4% | 59.8%
CCCCCCCCC(CC)OC(=O)CCCCCCCN(CCCCCCCC(=O)OC(CCCCCCCC)CCCCCCCC)CCCNC(=O)C1(C)CC1 (centres unmarked) [Compound 60, Heptadecan-9-yl 8-((3-(1-methylcyclopropane-1-carboxamido)propyl)(8-oxo-8-(undecan-3-yloxy)octyl)amino)octanoate] | 0.192 | 90.8 nm | 41.5% | 20.5% | 6.69 | 5.65% | 7.34E+05 mIU/mL | 41093 | 1.055 | 8.5% | 77.2% | 14.3% | 6.0% | 51.8% | 42.2%
CCCCCCCCC(CC)OC(=O)CCCCCCCN(CCCCCCCC(=O)OC(CCCCCCCC)CCCCCCCC)CCCNS(=O)(=O)CC (centres unmarked) [Compound 66, Heptadecan-9-yl 8-((3-(ethylsulfonamido)propyl)(8-oxo-8-(undecan-3-yloxy)octyl)amino)octanoate] | 0.125 | 70.1 nm | 91.8% | 59.1% | 6.64 | 3.54% | 1.57E+06 mIU/mL | 112648 | 0.837 | 27.2% | 32.9% | 39.9% | 13.1% | 32.9% | 54.0%
CCCCCCCCC(CC)OC(=O)CCCCCCCN(CCCCCCCC(=O)OC(CCCCCCCC)CCCCCCCC)CCCNS(=O)(=O)C1CC1 (centres unmarked) [Compound 67, Heptadecan-9-yl 8-((3-(cyclopropanesulfonamido)propyl)(8-oxo-8-(undecan-3-yloxy)octyl)amino)octanoate] | 0.123 | 71.7 nm | 84.1% | 48.5% | 6.67 | 6.69% | 1.43E+06 mIU/mL | 146715 | 0.890 | 26.3% | 39.0% | 34.7% | 10.1% | 32.8% | 57.1%
CCCCCCCCC(CC)OC(=O)CCCCCCCN(CCCCCCCC(=O)OC(CCCCCCCC)CCCCCCCC)CCCNS(=O)(=O)C[C@H]1COCCO1 (stereo partly drawn) [Compound 70, Heptadecan-9-yl 8-((3-((((R)-1,4-dioxan-2-yl)methyl)sulfonamido)propyl)(8-oxo-8-(undecan-3-yloxy)octyl)amino)octanoate] | 0.123 | 72.6 nm | 89.9% | 60.7% | 6.75 | 0% | 9.18E+05 mIU/mL | 121247 | 0.902 | 12.7% | 50.1% | 37.2% | 10.3% | 40.2% | 49.5%
CCCCCCCCC(CC)OC(=O)CCCCCCCN(CCCCCCCC(=O)OC(CCCCCCCC)CCCCCCCC)CCCNS(=O)(=O)Cc1ccon1 (centres unmarked) [Compound 71, Heptadecan-9-yl 8-((3-((isoxazol-3-ylmethyl)sulfonamido)propyl)(8-oxo-8-(undecan-3-yloxy)octyl)amino)octanoate] | 0.109 | 64.7 nm | 90.8% | 50.7% | 6.54 | 0% | 1.50E+06 mIU/mL | 147047 | 0.874 | 20.2% | 35.9% | 43.9% | 8.7% | 30.8% | 60.6%
